These are literature values, as cited in patent EP2899264B1, “EMULSION FOR MICROBIAL GROWTH, METHOD FOR GROWING MICROORGANISMS BY USING SAID EMULSION, AND METHOD FOR PRODUCING MICROBIAL METABOLITE” (Kaneka Corporation, priority 2012, dated 2014).

For one data set, the system named is microorganisms. As to conditions: used as emulsifier.
For data set [1] the following is noted: for concentration at which the acid aggregates: in water.
The next data set concerns Aeromonas hydrophila. As to conditions: sole carbon source.
Data set [2] deals with Ralstonia eutropha (currently classified as Cupriavidus necator). As to conditions: sole carbon source.

Consider `CCCCCCCCCCCCOS(=O)(=O)[O-].[Na+]` [SDS], for which the “effect on growth of microorganisms” value in the data set with microorganisms is listed as “inhibit growth of microorganisms”.
With `CCCCCCCCCCCC(=O)O` [lauric acid], in data set [1], the water solubility was no more than 100 µg/mL. Further, the dry cell weight entry in the data set on Aeromonas hydrophila is reported as “about 8 g/L”. Besides, the PHA productivity in data set [2] is given as no more than 1 g/L.
In the case of `CCCCCCCCCCCCCC(=O)O` [myristic acid], in data set [2], the PHA productivity is given as no more than 1 g/L.
For `CCCCCCCCCCCCCCCC(=O)O` [palmitic acid], in data set [1], the “concentration at which the acid aggregates” value is no more than 1000 nM.
Turning to `CCCCCCCCCCCCCCCCCC(=O)O` [stearic acid], in data set [1], the “concentration at which the acid aggregates” value is no more than 1000 nM.
Regarding Triton X-100, in the data set with microorganisms, the “effect on growth of microorganisms” value was “inhibit growth of microorganisms”.
